Measurements reported in patent publication US20230183218A1, “CONDENSED SUBSTITUTED HYDROPYRROLES AS ANTAGONISTS OF THE MUSCARINIC ACETYLCHOLINE RECEPTOR M4” (Vanderbilt University, priority 2020, published 2023).

Tests used:
Human M4 = target: T1, Human M4 (Homo sapiens, UniProt P08173); assay: mAChR M4 cell-based functional assay (calcium flux, antagonist mode vs EC80 acetylcholine), human M4/Gqi5/CHO-K1 cells; conditions: for remaining activity at 30 µM: CHO-K1, % ACh maximum at 30 μM, human M4, read-out: Human M4 Emin (%); for IC50: decrease of response elicited by EC80 acetylcholine, human M4/Gqi5 CHO-K1 cells
T1 construct: expressed in transfected cells; host or cells: CHO-K1 (ATCC), stably co-expressing chimeric G protein Gqi5
T1 sequence (P08173 1-479): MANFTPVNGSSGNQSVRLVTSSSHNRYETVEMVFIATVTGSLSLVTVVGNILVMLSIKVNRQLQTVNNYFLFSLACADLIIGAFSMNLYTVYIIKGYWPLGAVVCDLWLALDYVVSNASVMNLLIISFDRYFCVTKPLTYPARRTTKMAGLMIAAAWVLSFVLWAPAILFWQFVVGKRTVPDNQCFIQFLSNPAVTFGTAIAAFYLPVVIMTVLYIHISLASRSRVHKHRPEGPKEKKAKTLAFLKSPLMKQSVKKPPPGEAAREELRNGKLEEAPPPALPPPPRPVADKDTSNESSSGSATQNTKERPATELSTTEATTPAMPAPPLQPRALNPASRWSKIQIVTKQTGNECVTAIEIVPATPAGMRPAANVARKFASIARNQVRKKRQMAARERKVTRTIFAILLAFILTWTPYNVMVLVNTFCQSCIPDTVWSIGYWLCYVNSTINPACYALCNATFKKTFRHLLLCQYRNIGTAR
Procedure: (§1) Human or rat M4 cDNA, along with the chimeric G protein Gqi5, were transfected into Chinese hamster ovary (CHO-K1) cells purchased from the American Type Culture Collection using Lipofectamine2000. M4/Gqi5/CHO cells were grown in Ham's F-12 medium containing 10% heat-inactivated fetal bovine serum (FBS), 20 mM HEPES, 500 μg/mL G418 sulfate, and 200 μg/mL Hygromycin B.
(§2) For high throughput measurement of agonist-evoked increases in intracellular calcium, CHO-K1 cells stably expressing muscarinic receptors were plated in growth medium lacking G418 and hygromycin at 15,000 cells/20 μL/well in Greiner 384-well black-walled, tissue culture (TC)-treated, clear-bottom plates (VWR). Cells were incubated overnight at 37° C. and 5% CO2. The next day, cells were washed using an ELX 405 (BioTek) with assay buffer; the final volume was then aspirated to 20 μL. Next, 20 μL of a 2.3 μM stock of Fluo-4/acetoxymethyl ester (Invitrogen, Carlsbad, Calif.), prepared as a 2.3 mM stock in DMSO and mixed in a 1:1 ratio with 10% (w/v) Pluronic F-127 and diluted in assay buffer, was added to the wells and the cell plates were incubated for 50 min at 37° C. and 5% CO2. Dye was removed by washing with the ELX 405 and the final volume was aspirated to 20 μL. Compound master plates were formatted in a 10 point concentration-response curve (CRC) format (1:3 dilutions) in 100% DMSO with a starting concentration of 10 or 1 mM using a BRAVO liquid handler (Agilent). Test compound CRCs were then transferred to daughter plates (240 nL) using the Echo acoustic plate reformatter (Labcyte, Sunnyvale, Calif.) and then diluted into assay buffer (40 μL) to a 2× stock using a Thermo Fisher Combi (Thermo Fisher Scientific, Waltham, Mass.).
(§3) Calcium flux was measured using the Functional Drug Screening System (FDSS) 6000 or 7000 (Hamamatsu Corporation, Tokyo, Japan) as an increase in the fluorescent static ratio. Compounds were applied to cells (20 μL, 2×) using the automated system of the FDSS at 2 seconds into the protocol and the data were collected at 1 Hz. At 143 s, 10 μL of an EC20 concentration of the muscarinic receptor agonist acetylcholine was added (5×), followed by the addition of 12 μL of an EC80 concentration of acetylcholine at the 268 s time point (5×). Agonist activity was analyzed as a concentration-dependent increase in calcium mobilization upon compound addition. Positive allosteric modulator activity was analyzed as a concentration-dependent increase in the EC20 acetylcholine response. Antagonist activity was analyzed as a concentration-dependent decrease in the EC80 acetylcholine response; for the purposes of the tables herein, an IC50 (inhibitory concentration 50) was calculated as a concentration-dependent decrease of the response elicited by an EC80 concentration of acetylcholine. Concentration-response curves were generated using a four-parameter logistical equation in XLFit curve fitting software (IDBS, Bridgewater, N.J.) for Excel (Microsoft, Redmond, Wash.) or Prism (GraphPad Software, Inc., San Diego, Calif.) or the Dotmatics software platform (Dotmatics, Bishop's Stortford, UK).
(§4) Compounds were synthesized as described above. Activity (IC50 and Emin) was determined in the mAChR M4 cell-based functional assay as described above and the data are shown in Table 2.

Rat M4 = target: T2, Rat M4 (Rattus norvegicus, UniProt P08485); assay: mAChR M4 cell-based functional assay (calcium flux, antagonist mode vs EC80 acetylcholine), rat M4/Gqi5/CHO-K1 cells; conditions: for remaining activity at 30 µM: CHO-K1, % ACh maximum at 30 μM, rat M4, read-out: Rat M4 Emin (%); for IC50: decrease of response elicited by EC80 acetylcholine, rat M4/Gqi5 CHO-K1 cells
T2 construct: expressed in transfected cells; host or cells: CHO-K1 (ATCC), stably co-expressing chimeric G protein Gqi5
T2 sequence (P08485 1-478): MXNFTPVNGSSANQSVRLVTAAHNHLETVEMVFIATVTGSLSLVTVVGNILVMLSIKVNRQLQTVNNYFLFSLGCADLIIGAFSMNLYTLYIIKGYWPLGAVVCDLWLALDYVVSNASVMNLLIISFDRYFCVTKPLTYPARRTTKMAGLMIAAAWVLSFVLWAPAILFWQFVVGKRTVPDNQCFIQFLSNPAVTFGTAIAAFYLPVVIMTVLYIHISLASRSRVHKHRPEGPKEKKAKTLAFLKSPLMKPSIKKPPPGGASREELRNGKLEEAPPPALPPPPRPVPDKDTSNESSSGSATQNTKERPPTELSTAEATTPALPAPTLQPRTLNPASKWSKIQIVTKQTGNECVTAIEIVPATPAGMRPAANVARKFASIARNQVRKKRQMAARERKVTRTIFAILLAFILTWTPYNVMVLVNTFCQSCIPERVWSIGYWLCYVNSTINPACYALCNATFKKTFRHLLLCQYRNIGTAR
Procedure: as §1, §2, §3, §4

Compound	remaining activity at 30 µM (Human M4)	IC50 (Human M4)	remaining activity at 30 µM (Rat M4)	IC50 (Rat M4)
O=C(NC1CC1)c1ccc(N[C@H]2C[C@@H]3CN(CC4CCOCC4)C[C@@H]3C2)nn1 [compound 3, N-cyclopropyl-6-(((3aR,5s,6aS)-2-((tetrahydro-2H-pyran-4-yl)methyl)octahydrocyclopenta[c]pyrrol-5-yl)amino)pyridazine-3-carboxamide]	9%	417 nM		
O=C(NC1CCCCC1)c1ccc(N[C@H]2C[C@@H]3CN(CC4CCOCC4)C[C@@H]3C2)nn1 [compound 4, N-cyclohexyl-6-(((3aR,5s,6aS)-2-((tetrahydro-2H-pyran-4-yl)methyl)octahydrocyclopenta[c]pyrrol-5-yl)amino)pyridazine-3-carboxamide]	6%	535 nM		
O=C(c1ccc(N[C@H]2C[C@@H]3CN(CC4CCOCC4)C[C@@H]3C2)nn1)N1CCCCC1 [compound 5, piperidin-1-yl(6-(((3aR,5s,6aS)-2-((tetrahydro-2H-pyran-4-yl)methyl)octahydrocyclopenta[c]pyrrol-5-yl)amino)pyridazin-3-yl)methanone]	14%	5.45 nM	14%	> 10000 nM
O=C(c1ccc(N[C@H]2C[C@@H]3CN(CC4CCOCC4)C[C@@H]3C2)nn1)N1CCOCC1 [compound 6, morpholino(6-(((3aR,5s,6aS)-2-((tetrahydro-2H-pyran-4-yl)methyl)octahydrocyclopenta[c]pyrrol-5-yl)amino)pyridazin-3-yl)methanone]	21%	11.7 nM	13%	7430 nM
O=C(Nc1ccccc1)c1ccc(N[C@H]2C[C@@H]3CN(CC4CCOCC4)C[C@@H]3C2)nn1 [compound 7, N-phenyl-6-(((3aR,5s,6aS)-2-((tetrahydro-2H-pyran-4-yl)methyl)octahydrocyclopenta[c]pyrrol-5-yl)amino)pyridazine-3-carboxamide]	4%	572 nM	22%	> 10000 nM
O=C(Nc1ccccc1F)c1ccc(N[C@H]2C[C@@H]3CN(CC4CCOCC4)C[C@@H]3C2)nn1 [compound 8, N-(2-fluorophenyl)-6-(((3aR,5s,6aS)-2-((tetrahydro-2H-pyran-4-yl)methyl)octahydrocyclopenta[c]pyrrol-5-yl)amino)pyridazine-3-carboxamide]	4%	355 nM	25%	> 10000 nM
CC1(C)CC(N2C[C@H]3C[C@H](Nc4ncc(-c5ccccc5)s4)C[C@H]3C2)CCO1 (stereo partly drawn) [compound 19, N-((3aR,5s,6aS)-2-(2,2-dimethyltetrahydro-2H-pyran-4-yl)octahydrocyclopenta[c]pyrrol-5-yl)-5-phenylthiazol-2-amine]			70%	> 10000 nM
CC1(C)CC(N2C[C@H]3C[C@H](Nc4ccc5nncn5n4)C[C@H]3C2)CCO1 (stereo partly drawn) [compound 61, N-((3aR,5s,6aS)-2-(2,2-dimethyltetrahydro-2H-pyran-4-yl)octahydrocyclopenta[c]pyrrol-5-yl)-[1,2,4]triazolo[4,3-b]pyridazin-6-amine]	52%	> 10000 nM		

Results, then the compound that gave them:

remaining activity at 30 µM (Human M4)	IC50 (Human M4)	remaining activity at 30 µM (Rat M4)	IC50 (Rat M4)	Compound
4%	42.2 nM	5%	740 nM	COCCCN1C[C@H]2C[C@H](Nc3ccc(-c4cc(F)ccc4Cl)nn3)C[C@H]2C1 [compound 1, (3aR,5s,6aS)-N-(6-(2-chloro-5-fluorophenyl)pyridazin-3-yl)-2-(3-methoxypropyl)octahydrocyclopenta[c]pyrrol-5-amine]
5%	64.7 nM	6%	1270 nM	Fc1ccc(Cl)c(-c2ccc(N[C@H]3C[C@@H]4CN(C5CCOCC5)C[C@@H]4C3)nn2)c1 [compound 2, (3aR,5s,6aS)-N-(6-(2-chloro-5-fluorophenyl)pyridazin-3-yl)-2-(tetrahydro-2H-pyran-4-yl)octahydrocyclopenta[c]pyrrol-5-amine]
3%	713 nM			O=C(Nc1cccc(F)c1)c1ccc(N[C@H]2C[C@@H]3CN(CC4CCOCC4)C[C@@H]3C2)nn1 [compound 9, N-(3-fluorophenyl)-6-(((3aR,5s,6aS)-2-((tetrahydro-2H-pyran-4-yl)methyl)octahydrocyclopenta[c]pyrrol-5-yl)amino)pyridazine-3-carboxamide]
4%	543 nM	9%	4190 nM	O=C(Nc1ccc(F)cc1)c1ccc(N[C@H]2C[C@@H]3CN(CC4CCOCC4)C[C@@H]3C2)nn1 [compound 10, N-(4-fluorophenyl)-6-(((3aR,5s,6aS)-2-((tetrahydro-2H-pyran-4-yl)methyl)octahydrocyclopenta[c]pyrrol-5-yl)amino)pyridazine-3-carboxamide]
4%	2060 nM	29%	> 10000 nM	O=C(Nc1cc(F)ccc1Cl)c1ccc(N[C@H]2C[C@@H]3CN(CC4CCOCC4)C[C@@H]3C2)nn1 [compound 11, N-(2-chloro-5-fluorophenyl)-6-(((3aR,5s,6aS)-2-((tetrahydro-2H-pyran-4-yl)methyl)octahydrocyclopenta[c]pyrrol-5-yl)amino)pyridazine-3-carboxamide]
4%	2.85 nM	5%	445 nM	Fc1ccc(Cl)c(-c2ccc(N[C@H]3C[C@@H]4CN(C5CCCCC5)C[C@@H]4C3)nn2)c1 [compound 12, (3aR,5s,6aS)-N-(6-(2-chloro-5-fluorophenyl)pyridazin-3-yl)-2-cyclohexyloctahydrocyclopenta[c]pyrrol-5-amine]
57%	≥ 10000 nM			N#Cc1ccccc1N1C[C@H]2C[C@H](Nc3ccc(-c4cc(F)ccc4Cl)nn3)C[C@H]2C1 [compound 17, 2-((3aR,5s,6aS)-5-((6-(2-chloro-5-fluorophenyl)pyridazin-3-yl)amino)hexahydrocyclopenta[c]pyrrol-2(1H)-yl)benzonitrile]
